Literature values, collected in patent US20050227949A1, “Compositions and methods for treatment of viral and bacterial infections” (priority 2004, published 2005).

How the values were obtained:
suppressor T-cells = settings: further reported uses; probably due to blockade of selected suppressor T-cells
herpes simplex = settings: previously reported treatment of herpes simplex infections
HIV = settings: previously reported

CN/C(=N/CCSCc1nc[nH]c1C)NC#N [cimetidine]
immune functions (suppressor T-cells): improvements of various immune functions | outbreak and duration of herpes zoster (herpes simplex): effectively reduced outbreak and duration of herpes zoster | treatment result in HIV patients (HIV): less encouraging results
